Assays:
Format in all cases: functional
[1] = test system: Chilo suppressalis; test: Insecticidal activity against Chilo suppressalis (rice stem borer) assessed as mortality compound administered as topical application
[2] = test system: Tetranychus urticae; test: Acaricidal activity against Tetranychus urticae (two-spotted spider mite) assessed as mortality at 500 ppm; conditions: Tetranychus urticae
[3] = test system: Chilo suppressalis; test: Insecticidal activity against Chilo suppressalis (rice stem borer) assessed as mortality at 50 ug/g administered as topical application
[4] = test system: Spodoptera litura; test: Insecticidal activity against Spodoptera litura assessed as mortality at 500 ppm; conditions: Spodoptera litura
[5] = test system: Nilaparvata lugens; test: Insecticidal activity against Nilaparvata lugens (brown planthopper) assessed as mortality at 50 ppm; conditions: Nilaparvata lugens
[6] = test system: Culex pipiens molestus; test: Insecticidal activity against Culex pipiens molestus assessed as mortality at 5 ppm; conditions: Culex pipiens

| Structure (SMILES) | LD50 [1] [mg/kg] | mortality at 500 ppm [2] [%] | mortality [3] [%] | mortality at 500 ppm [4] [%] | mortality at 50 ppm [5] [%] | mortality at 5 ppm [6] [%] |
| --- | --- | --- | --- | --- | --- | --- |
| CN(C)C[C@@H]1CCSC(C#N)(c2ccc(Cl)cc2)S1.O=C(O)C(=O)O (mixture of isomers) | 20.7 | 100 | 100 | 0 | 90 | 90 |
| CN(C)C(CSC(N)=O)CSC(N)=O.Cl [CARTAP HYDROCHLORIDE] | 2.3 | 37 | 100 | 35 | 100 | 100 |
| CN(C)C1CSSC1.O=C(O)C(=O)O [NEREISTOXIN HYDROGEN OXALATE] | 1.7 | 50 | 100 | 30 | 100 | 100 |
| CN(C)C1CS[S+]([O-])C1.O=C(O)C(=O)O (centres undefined) [NEREISTOXIN MONOXIDE HYDROGEN OXALATE] | 5.8 | 60 | 100 | 30 | 100 | 50 |

Reference: ChEMBL document CHEMBL3045009, “Synthesis and Biological Activity of the Functional Derivatives of 3- and 4-(Dimethyl-aminomethyl)-1,2-dithiolanes” (1992)
